The target of test [1] is FGFR4 kinase domain recombinant protein (Homo sapiens, UniProt P22455). The test can be described thus: FGFR4 enzyme activity at molecular level (ELISA, Poly(Glu,Tyr) 4:1 substrate). A general note: In an ELISA, binding on a coated surface is turned into a signal by an enzyme label.
Method: (§1) The plate was placed at 37° C. for 12-16 hours. The liquid in the well was discarded, the plate was washed, and the panel was washed three times with 200 μL/well of T-PBS (PBS containing 0.1% Tween-20) for 5 minutes each time.
(§2) 50 μL of ATP solution diluted with reaction buffer (50 mM HEPES pH 7.4, 50 mM MgCl2, 0.5 mM MnCl2, 0.2 mM Na3VO4, 1 mM DTT) was added to each well to a final concentration of 5 μM. The compound was diluted to a suitable concentration in DMSO, 1 μL/well or containing the corresponding concentration of DMSO (negative control well), and the FGFR1, FGFR4 kinase domain recombinant protein diluted in 49 μL of reaction buffer was added to initiate the reaction. Two control wells without ATP were required for each experiment. The reaction was carried out for 1 hour at 37° C. on a shaker (100 rpm). The plate was washed three times with T-PBS. Primary antibody, PY99 dilution was added at 100 μL/well and shaken at 37° C. for 0.5 hour. The plate was washed three times with T-PBS. Secondary antibody, horseradish peroxidase-labeled goat anti-mouse IgG dilution was added at 100 μL/well, and shaken at 37° C. for 0.5 hour. […] (Ultrasound was required for the dissolution of OPD, and the chromogenic solution needed to be prepared when used). 2 M H2SO4 was added at 50 μL/well to quench the reaction and a tunable wavelength microplate reader SPECTRA MAX 190 was used at a wavelength of 490 nm.
(§3) The inhibition rate of the sample was obtained by the following formula:
(§4) The IC50 value was obtained by four-parameter regression using the software attached to the microplate reader.
Test [2] has as its target FGFR1 kinase domain recombinant protein (Homo sapiens, UniProt P11362). The test can be described thus: FGFR1 enzyme activity at molecular level (ELISA, Poly(Glu,Tyr) 4:1 substrate).
Method: as §1, §2, §3, §4

Where only a bound is given, the exact number is not on record here.

Usually IC50 stands for the concentration needed to halve the response being measured.

FGFR4 kinase domain recombinant protein, sequence (P22455 467-755 limits assumed): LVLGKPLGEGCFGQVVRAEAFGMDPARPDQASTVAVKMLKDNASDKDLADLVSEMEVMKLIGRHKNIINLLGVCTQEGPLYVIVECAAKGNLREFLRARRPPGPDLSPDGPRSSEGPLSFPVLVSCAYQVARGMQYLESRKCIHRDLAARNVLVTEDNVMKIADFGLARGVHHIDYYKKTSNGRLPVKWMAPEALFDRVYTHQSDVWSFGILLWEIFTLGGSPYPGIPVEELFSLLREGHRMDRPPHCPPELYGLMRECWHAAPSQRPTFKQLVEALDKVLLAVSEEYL
FGFR1 kinase domain recombinant protein, sequence (P11362 478-767 limits assumed): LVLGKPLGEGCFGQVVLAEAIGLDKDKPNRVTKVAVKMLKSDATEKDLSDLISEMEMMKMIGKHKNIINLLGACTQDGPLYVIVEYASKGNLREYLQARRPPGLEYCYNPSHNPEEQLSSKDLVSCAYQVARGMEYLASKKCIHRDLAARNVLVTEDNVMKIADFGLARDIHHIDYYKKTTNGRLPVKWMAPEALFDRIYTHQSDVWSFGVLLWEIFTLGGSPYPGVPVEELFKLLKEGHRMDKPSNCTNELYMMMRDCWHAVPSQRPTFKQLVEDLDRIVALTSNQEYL

Turning to `C=CC(=O)N1CCC(Cn2cc(-c3cc4cc(C)cc(OC)c4s3)c3c(N)ncnc32)C1` (centres unmarked) [NO. 20, 1-(3-((4-amino-5-(7-methoxy-5-methylbenzothiophene-2-yl)-7H-pyrrole [2,3-d]pyrimidine-7-yl)methyl)pyrrolidine-1-yl)prop-2-en-1-one], the IC50 in test [1] and in test [2] was 10 to 100 nM each time.
`C=CC(=O)N1CCC(n2cc(-c3cc4cc(C(F)(F)F)cc(OC)c4s3)c3c(N)ncnc32)C1` (centres unmarked) [NO. 58, 1-(3-(4-amino-5-(7-methoxy-5-(trifluoromethyl)benzothiophene-2-yl)-7H-pyrrole[2,3-d]pyrimidine-7-yl)pyrrolidine-1-yl)prop-2-en-1-one]: the IC50 in test [1] and in test [2] was under 10 nM each time.
Take `C=CC(=O)N1CCC(n2cc(-c3cc4cc(C)cc(OC)c4s3)c3c(N)nc(OCCN4CCOCC4)nc32)C1` (centres unmarked) [NO. 66, 1-(3-(4-amino-5-(7-methoxy-5-methylbenzothiophene-2-yl)-2-(2-morpholineethoxy)-7H-pyrrole [2,3-d]pyrimidine-7-yl)pyrrolidine-1-yl)prop-2-en-1-one]: the IC50 in test [2] is over 100 nM.
Take `C=CC(=O)NCCn1nc(-c2cc3cc(C)cc(OC)c3s2)c2c(N)ncnc21` [NO. 50, N-(2-(4-amino-3-(7-methoxy-5-methylbenzothiophen-2-yl)-1H-pyrazole[3,4-d]pyrimidine-1-yl)ethyl)acrylamide]: the IC50 in test [1] and in test [2] was over 100 nM throughout.
On to `COc1cc(C)cc2cc(-c3cn(C4CCN(C(=O)C(C#N)=CC5CC5)C4)c4ncnc(N)c34)sc12` (centres unmarked) [NO. 25, 2-(3-(4-amino-5-(7-methoxy-5-methylbenzothiophene-2-yl)-7H-pyrrole[2,3-d]pyrimidine-7-yl)pyrrolidine-1-carbonyl)-3-cyclopropyl acrylonitrile], for which the IC50 in test [1] and in test [2] was under 10 nM in each case.
As to `COc1cc(C)cc2cc(-c3cn(C4CCN(C(=O)OC(C)(C)C)C4)c4ncnc(N)c34)sc12` (centres unmarked) [NO. 10, tert-butyl 3-(4-amino-5-(7-methoxy-5-methylbenzothiophene-2-yl)-7H-pyrrole[2,3-d]pyrimidine-7-yl) pyrrolidine-1-formate], the IC50 is over 100 nM in test [1] and 10 to 100 nM in test [2].
As for `C=C(CN(C)C)C(=O)N1CC(n2cc(-c3cc4cc(C)cc(OC)c4s3)c3c(N)ncnc32)C1` [NO. 53, 1-(3-(4-amino-5-(7-methoxy-5-methylbenzothiophene-2-yl)-7H-pyrrole[2,3-d]pyrimidine-7-yl)azetidine-1-yl)-2-((dimethylamino)methylene)prop-2-en-1-one], the IC50 in test [1] and in test [2] was under 10 nM each time.
Take `C=CC(=O)N1CC[C@@H](n2cc(-c3cc4cc(C)cc(OC)c4s3)c3c(N)ncnc32)C1` [NO. 11, (R)-1-(3-(4-amino-5-(7-methoxy-5-methylbenzothiophene-2-yl)-7H-pyrrole[2,3-d]pyrimidine-7-yl)pyrrolidine-1-yl)prop-2-en-1-one]: the IC50 in test [1] was 10 to 100 nM; in test [2], under 10 nM.
Consider `C=CC(=O)N1CCC(n2cc(-c3cc4cc(C)cc(OC)c4s3)c3c(N(C)C)ncnc32)C1` (centres unmarked) [NO. 63, 1-(3-(4-(dimethylamino)-5-(7-methoxy-5-methylbenzothiophene-2-yl)-7H-pyrrole[2,3-d]pyrimidine-7-yl)pyrrolidine-1-yl)prop-2-en-1-one], for which the IC50 in test [1] and in test [2] was over 100 nM throughout.
With `C=C(CN1CCCCC1)C(=O)N1CC[C@H](n2cc(-c3cc4cc(C)cc(OC)c4s3)c3c(N)ncnc32)C1` [NO. 48, (S) 1-(3-(4-amino-5-(7-methoxy-5-methylbenzothiophene-2-yl)-7H-pyrrole[2,3-d]pyrimidine-7-yl)pyrrolidine-1-yl)-2-(piperidine-1-methylene)prop-2-en-1-one], the IC50 in test [1] is under 10 nM; in test [2] it was 10 to 100 nM.
The like results for `C/C=C/C(=O)N1CCC(n2cc(-c3cc4cc(C)cc(OC)c4s3)c3c(N)ncnc32)C1` (centres unmarked) [NO. 18, (E)-1-(3-(4-amino-5-(7-methoxy-5-methylbenzothiophene-2-yl)-7H-pyrrole[2,3-d]pyrimidine-7-yl)pyrrolidine-1-yl)but-2-en-1-one] were, in that order, 10 to 100 nM and under 10 nM.
The like results for `COc1cc(C)cc2cc(-c3cn(C4CCN(C(=O)/C=C/CN5CCCC5)C4)c4ncnc(N)c34)sc12` (centres unmarked) [NO. 7, (E)1-(3-(4-amino-5-(7-methoxy-5-methylbenzothiophene-2-yl)-7H-pyrrole[2,3-d]pyrimidine-7-yl)pyrrolidine-1-yl)-4-(pyrrolidine-1-yl)but-2-en-1-one] were, in that order, 10 to 100 nM and under 10 nM.
As for `C=CC(=O)N1CC[C@H](n2cc(-c3cc4cc(Br)cc(OC)c4s3)c3c(N)ncnc32)C1` [NO. 62, (S)-1-(3-(4-amino-5-(5-bromo-7-methoxybenzothiophene-2-yl)-7H-pyrrole[2,3-d]pyrimidine-7-yl)pyrrolidine-1-yl)prop-2-en-1-one], the IC50 in test [2] is under 10 nM.
Turning to `C=C(CN1CCN(C)CC1)C(=O)N1CC(n2cc(-c3cc4cc(C)cc(OC)c4s3)c3c(N)ncnc32)C1` [NO. 52, 1-(3-(4-amino-5-(7-methoxy-5-methylbenzothiophene-2-yl)-7H-pyrrole[2,3-d]pyrimidine-7-yl)azetidine-1-yl)-2-((4-methylpiperazin-1-yl)methylene)prop-2-en-1-one], the IC50 in test [1] and in test [2] was under 10 nM in each case.
For the molecule `C=CC(=O)N1CCC(n2cc(-c3ccoc3)c3c(N)ncnc32)C1` (centres unmarked) [NO. 83, 1-(3-(4-amino-5-(furan-3-yl)-7H-pyrrole [2,3-d]pyrimidine-7-yl)pyrrolidine-1-yl)prop-2-en-1-one], the IC50 in test [1] and in test [2] was over 100 nM in each case.
As for `C=CC(=O)N1CC[C@H](n2cc(-c3cnc4ccccc4c3)c3c(N)ncnc32)C1` [Control compound, (S)-1-(3-(4-amino-5-(quinolin-3-yl)-7H-pyrrole[2,3-d]pyrimidine-7-yl)pyrrolidine-1-yl)prop-2-en-1-one, reference compound], the IC50 in test [1] was 10 to 100 nM; in test [2] it was over 100 nM. Also, the “FGFR inhibitory activity (in words)” value in test [2] (FGFR1 and FGFR4 enzymes, conclusion from Table 2) is “substantially no FGFR inhibitory activity”.
With `C=C(CN(CC)CC)C(=O)N1CC(n2cc(-c3cc4cc(C)cc(OC)c4s3)c3c(N)ncnc32)C1` [NO. 51, 1-(3-(4-amino-5-(7-methoxy-5-methylbenzothiophene-2-yl)-7H-pyrrole[2,3-d]pyrimidine-7-yl)azetidine-1-yl)-2-((diethylamino)methylene)prop-2-en-1-one], the IC50 in test [1] and in test [2] was under 10 nM each time.
For the molecule `COc1cc(C)cc2cc(-c3cn(CCN4CCOCC4)c4ncnc(N)c34)sc12` [NO. 76, 5-(7-methoxy-5-methylbenzothiophene-2-yl)-7-(2-morpholineethyl)-7H-pyrrole[2,3-d]p yrimidine-4-amine], the IC50 is over 100 nM in test [1] and 10 to 100 nM in test [2].
As for `COCCN(C)C/C=C/C(=O)N1CCC(n2cc(-c3cc4cc(C)cc(OC)c4s3)c3c(N)ncnc32)C1` (centres unmarked) [NO. 81, (E)-1-(3-(4-amino-5-(7-methoxy-5-methylbenzothiophene-2-yl)-7H-pyrrole[2,3-d]pyrimidine-7-yl)pyrrolidine-1-yl)-4-((2-methoxyethyl) (methyl)amino)but-2-en-1-one], the IC50 in test [1] is 10 to 100 nM; in test [2], under 10 nM.
Regarding `C=C(CN1CCOCC1)C(=O)N1CC[C@H](n2cc(-c3cc4cc(C)cc(OC)c4s3)c3c(N)ncnc32)C1` [NO. 45, (S) 1-(3-(4-amino-5-(7-methoxy-5-methylbenzothiophane-2-yl)-7H-pyrrole[2,3-d]pyrimidine-7-yl)pyrrolidine-1-yl)-2-(morpholinemethylene)prop-2-en-1-one], the IC50 in test [1] is under 10 nM; in test [2] it was 10 to 100 nM.
For the molecule `COc1cc(C)cc2cc(-c3nn(C4CCN(C(=O)CCl)C4)c4ncnc(N)c34)sc12` (centres unmarked) [NO. 84, 1-(3-(4-amino-3-(7-methoxy-5-methylbenzothiophene-2-yl)-1H-pyrazole[3,4-d]pyrimidine-1-yl)pyrrolidine-1-yl)-2-chloroethane-1-one], the IC50 is over 100 nM in test [1] and under 10 nM in test [2].
Consider `C=CC(=O)N1CC(n2cc(-c3cc4cc(C)cc(OC)c4s3)c3c(N)ncnc32)CC1CO` (centres unmarked) [NO. 70, 1-(4-(4-amino-5-(7-methoxy-5-methylbenzothiophene-2-yl)-7H-pyrrole[2,3-d]pyrimidine-7-yl)-2-(hydroxymethyl)pyrrolidine-1-yl)prop-2-en-1-one], for which the half-maximal inhibitory concentration (IC50) in test [2] is under 10 nM.
The same measure, in the same setting: under `C=CC(=O)N1CC[C@H](n2cc(-c3cc4cc(Cl)cc(OC)c4s3)c3c(N)ncnc32)C1` [NO. 59, (S)-1-(3-(4-amino-5-(5-chloro-7-methoxybenzothiophene-2-yl)-7H-pyrrole[2,3-d]pyrimidine-7-yl)pyrrolidine-1-yl)prop-2-en-1-one] stands under 10 nM.
With `C=CC(=O)N1CCC(n2c(Cl)c(-c3cc4cc(C)cc(OC)c4s3)c3c(N)ncnc32)C1` (centres unmarked) [NO. 71], the IC50 in test [2] was under 10 nM.
Take `C=CC(=O)N1C[C@@H](n2nc(-c3cc4cc(C)cc(OC)c4s3)c3c(N)ncnc32)C[C@H]1C(=O)N(C)CCN(C)C` [NO. 75]: the IC50 in test [2] is under 10 nM.
As to `C=CC(=O)N1CC(n2cc(-c3cc4cc(C)cc(OC)c4o3)c3c(N)ncnc32)C1` [NO. 23, 1-(3-(4-amino-5-(7-methoxy-5-methylbenzofuran-2-yl)-7H-pyrrole[2,3-d]pyrimidine-7-yl)azetidine-1-yl)prop-2-en-1-one], in test [1], the IC50 is over 100 nM.
For the molecule `C=CC(=O)N1CC[C@H](n2cc(-c3cc4cc(F)cc(OC)c4s3)c3c(N)ncnc32)C1` [NO. 60, (S)-1-(3-(4-amino-5-(5-fluoro-7-methoxybenzothiophene-2-yl)-7H-pyrrole[2,3-d]pyrimidine-7-yl)pyrrolidine-1-yl)prop-2-en-1-one], the IC50 in test [2] was under 10 nM.

The record behind these values is US20190367520A1, “NEW COMPOUND HAVING FGFR INHIBITORY ACTIVITY AND PREPARATION AND APPLICATION THEREOF” (SHANGHAI INSTITUTE OF MATERIA MEDICA, CHINESE ACADEMY OF …, priority 2016, published 2019).
